Read-outs that look alike come from different tables or passages of the source.
Tests used:
cytotoxicity assay, K562 = assay type: cell-based; details: human, K562 cells
Description: (§1) The cytotoxicity assay was performed in accordance with the published protocols. The antimicrobial assay was performed according to the method described previously.

cytotoxicity assay, A549 = assay type: cell-based; details: human, A549 cells
Description: as §1

RAW 264.7 cells = assay: iNOS assay: inhibition of LPS-stimulated NO production (Griess reaction); assay type: cell-based, mouse; details: 18 h
Description: Mouse macrophage RAW 264.7 cells obtained from the American Type Culture Collection (ATCC, Rockville, MD, USA) were cultured in Dulbecco’s modified Eagle’s medium (DMEM) supplemented with 10% heat-inactivated fetal bovine serum (FBS) with antibiotics-antimycotics (PSF; 100 units/mL penicillin G sodium, […] streptomycin, and 250 ng/mL amphotericin B). The cells were seeded in 24-well plates (2 × 10^5 cells/mL). The next day, the culture media was changed to 1% FBS-DMEM, and the samples were treated with the test compounds. After pretreatment with the drug for 1 h, 1 μg/mL lipopolysaccharides (LPS) was added to stimulate NO production. The cells were incubated for an additional 18 h, and the amount of NO produced in the supernatant was determined by Griess reaction. Then, the absorbance was measured at 540 nm, and the nitrite concentration was determined by comparison with a sodium nitrite standard curve. The percent inhibition was calculated using the following formula: [1 − (NO level of test samples/NO levels of vehicle-treated control)] × 100. The IC50 values were calculated through nonlinear regression analysis using TableCurve 2-D v5.01 (Systat Software Inc., San Jose, CA, USA). At the same time, MTT assays were also performed to test cell viability. MTT solution (final concentration of 500 μg/mL) was added to the cells, and they were incubated for 4 h at 37 °C. The culture media was removed, and the remaining dyes were dissolved in DMSO. The absorbance of each well was measured at 570 nm using a VersaMax ELISA microplate reader (Molecular Devices, Sunnyvale, CA, USA). The percent survival was determined by comparison with a control group (LPS+).
Figure S54. Inhibition of NO production of herqueinone compounds purified from Penicillium herquei. The effects of compounds on NO production in RAW 264.7 cells. (A) Cells were pre-treated with compounds (20 uM) and AMT (0.2 uM) for 1 h and LPS (1 ug/mL ) was added further incubated for 18 h . The amount of iNOS was examined by Griess reaction. (B) After iNOS level was measured, cell viability was tested using MTT assay. The values are expressed as the means ± SD of triplicate tests. (C) RAW 264.7 cells were pretreated with various concentrations of compound 7 and AMT (0.2 uM) for 1 h, and LPS (1 ug/mL) was added further incubated for 18 h. The amount of iNOS was examined b y Griess reaction. (D) Cell viability was tested by MTT assay. The values are expressed as the means ± SD of triplicate tests.

HUVECs = assay: VEGF-induced tube formation assay (angiogenesis); assay type: cell-based, human; details: VEGF 50 ng/mL, 6 h, read-out: IC50, inhibition of tube formation
Description: Human umbilical vascular endothelial cells (HUVECs) were purchased from the American Type Culture Collection (ATCC, Rockville, MD, USA), and cultured in EGM-2 (Lonza, Walkerswille, MD, USA) supplemented with 10% FBS and antibiotics-antimycotics (PSF). The cells were maintained at 37 °C under a humidified atmosphere containing 5% CO2. A 96-well plate was coated with Matrigel (Corning) for 30 min at 37 °C under a humidified atmosphere containing 5% CO2. HUVECs (1.8 × 10^4 cells/well) were mixed with the test compounds in 0.5% FBS EBM-2 medium with VEGF (50 ng/mL) or 0.5% FBS EBM-2 medium only for the VEGF negative control. The cells were incubated for 6 h and photographed using an inverted microscope (Olympus Optical Co. Ltd., Tokyo, Japan). Images were quantified with an angiogenesis analyzer using ImageJ software. Tube formation activity was calculated using the following formula: [(Total segment # (tested compound) − Total segment # (VEGF−)]/[Total segment # (VEGF+) − Total segment # (VEGF−)] × 100 (# stands for tubule segment number). The IC50 values were calculated through nonlinear regression analysis using TableCurve 2-D v5.01 (Systat Software Inc., San Jose, CA, USA). Cell viabilities were evaluated with the MTT assay. HUVECs (0.8 × 10^4 cells/well) were seeded into a 96-well plate and indicated for 1 day. The culture medium was replaced with serum-free medium, and the cells were incubated overnight. After starvation, the cells were treated with the test compounds and VEGF (50 ng/mL) in 2% FBS EBM-2 medium. Cells were incubated for a further 24 h, and MTT solution (final concentration of 500 μg/mL) was added to the cells to measure the cell viability. The formazan products were dissolved in DMSO. The absorbance of each well was measured at 570 nm using a VersaMax ELISA microplate reader (Molecular Devices, Sunnyvale, CA, USA).
Figure S55. Angiogenesis activities of herqueinone compounds purified from Penicillium herquei. Effects of 6 on VEGF-induced tube formation and cell viability. Tube formation activity was measured after cells were incubated with indicated concentrations of 6 on matrigel-coated 96wells for 6 h in the presence of VEGF (50 ng/mL) compared to control in the absence of VEGF. Cell viability was measured by MTT assay after treat with indicated concentrations of 6 in the presence of VEGF (50 ng/mL) for 24 h. The values are expressed as the means ± SD of triplicate tests. * p ≤ 0.05, ** p ≤ 0.01 and *** p ≤ 0.001.

hBM-MSCs = assay: adiponectin production assay during adipogenesis (ELISA); assay type: cell-based; details: Homo sapiens
Description: Human bone marrow-mesenchymal stem cells (hBM-MSCs) were purchased from Lonza, Inc. (Walkersville, MD, USA) and cultured in low-glucose (1 g/L) DMEM supplemented with 10% FBS, penicillin-streptomycin, and Glutamax^TM (Invitrogen, Carlsbad, CA, USA). To induce adipogenesis, the cell growth medium was replaced with high-glucose (4.5 g/L) DMEM supplemented with 10% FBS, penicillin-streptomycin, 10 μg/mL insulin, 0.5 μM dexamethasone, and 0.5 mM 3-isobutyl-1-methylxanthine (IBMX) (IDX conditions). IBMX, pioglitazone, and aspirin were purchased from Sigma-Aldrich (St. Louis, MO, USA). hBM-MSCs were stained with 0.2% oil red O (ORO) reagent for 10 min at 24 °C, and then washed with H2O four times. Following a 10-min elution with isopropanol, the absorbance was measured at 500 nm using a spectrophotometer. To visualize the nucleus, the hBM-MSCs were counterstained with hematoxylin reagent for 2 min and then washed twice with H2O. The level of adipocyte differentiation was observed and counted using an inverted phase microscope. A Quantikine immunoassay kit (R&D Systems, Minneapolis, MN, USA) was used for quantitative determination of adiponectin in the cell culture supernatants.
Figure S56. PPARγ binding and adiponectin secretion -promoting activities of herqueinone compounds purified from Penicillium herquei. (A) TR-FRET based competitive PPARγ binding assays were performed for herqueinone compounds 1-11. (B) Ki values for compounds 1, 3, 4, 7, 8 and 9 were calculated based on the Cheng and Prusoff analysis. (C) Herqueinone compounds were added to the IDX condition when adipogenesis was induced in hBM-MSCs. On the fifth day, the cell culture supernatants were harvested.
ELISA was performed to measure the level of adiponectin. Positive controls were pioglitazone and aspirin.
(D) The concentration dependency of herqueinone compounds 1, and 9 on adiponectin secretion-promoting activity was determined. Values represent means ± SD (n=3); * p ≤ 0.05 and ** p ≤ 0.01.
(1 picture or pasted object on this page, not shown here)

[1] = Mus musculus, RAW264.7, LPS 1 μg/mL
[2] = IDX conditions, read-out: IC50 values, adiponectin secretion-promoting effects
[3] = adiponectin secretion, Table S1, read-out: EC50 hBM-MSC(B7)

Structure (SMILES)	IC50 (cytotoxicity assay, K562)	IC50 (cytotoxicity assay, A549)	IC50 (RAW 264.7 cells; [1])	IC50 (HUVECs; Homo sapiens, HUVEC)	IC50 (RAW 264.7 cells; LPS 1 μg/mL)	EC50 (hBM-MSCs; [2])	EC50 (hBM-MSCs; [3])	IC50 (HUVECs)
CC(=O)CC1(O)C(=O)C2=c3c(c(O)cc(C)c3=C3O[C@H](C)C(C)(C)[C@]3(O)C2=O)C1=O (single isomer, unassigned) [Compound 4, Oxopropylisoherqueinone A]	> 10 µM	> 10 µM	> 20 µM	> 40 µM	–	–	–	–
CC1CCN=C(N)S1 (stereo not shown) [AMT, reference compound]	–	–	–	–	0.2 µM	–	–	–
COc1c(O)c2c3c(c1O)C(=O)[C@@]1(O)C(=C3C(C)=C(O)C2=O)O[C@@H](C)C1(C)C [Compound 1, ent-Peniciherqueinone]	> 10 µM	> 10 µM	> 20 µM	> 40 µM	–	57.5 µM	57.5 µM	–
CC1=C(O)C(=O)c2c(O)c(O)c(O)c3c2C1=C1O[C@@H](C)C(C)(C)[C@@]1(O)C3=O [Compound 2, 12-Hydroxynorherqueinone]	> 10 µM	> 10 µM	> 20 µM	> 40 µM	–	–	–	–
COc1c(O)c2c3c(c1O)C(=O)[C@]1(O)C(=C3C(C)=CC2=O)O[C@H](C)C1(C)C [Compound 3, ent-Isoherqueinone]	> 10 µM	> 10 µM	> 20 µM	> 40 µM	–	–	–	–
CC(=O)CC1(O)C(=O)C2=c3c(c(O)cc(C)c3=C3O[C@H](C)C(C)(C)[C@]3(O)C2=O)C1=O (stereo partly shown) [Compound 5, Oxopropylisoherqueinone B]	–	–	–	–	> 20 µM	–	–	> 40 µM
Cc1cc(O)c2c3c1=C1O[C@@H](C)C(C)(C)[C@@]1(O)C(=O)C=3C(=O)OC2=O [Compound 6, 4-Hydroxysclerodin]	> 10 µM	> 10 µM	> 20 µM	20.9 µM	–	–	–	–
CC(=O)CC1(O)C(=O)c2c(O)cc(C)c3c4c(c(O)c(c23)C1=O)C(C)(C)[C@@H](C)O4 (stereo partly shown) [Compound 7, acetone adduct of the triketone]	> 10 µM	> 10 µM	3.2 µM	> 40 µM	–	–	–	–
COc1c(O)c2c3c(c1O)C(=O)[C@@]1(O)C(=C3C(C)=CC2=O)O[C@H](C)C1(C)C [Compound 8, herqueinone]	> 10 µM	> 10 µM	> 20 µM	> 40 µM	–	–	–	–
COc1c(O)c2c3c(c1O)C(=O)[C@@]1(O)C(=C3C(C)=CC2=O)O[C@@H](C)C1(C)C [Compound 9, isoherqueinone]	> 10 µM	> 10 µM	> 20 µM	> 40 µM	–	39.7 µM	39.7 µM	–
Cc1cc(O)c2c3c(c(O)c4c(c13)O[C@@H](C)C4(C)C)C(=O)OC2=O [Compound 10, sclerodin]	> 10 µM	> 10 µM	> 20 µM	> 40 µM	–	–	–	–
Cc1cc(O)c2c3c(c(O)c4c(c13)O[C@@H](C)C4(C)C)C(=O)C(=O)O2 [Compound 11, scleroderolide]	> 10 µM	> 10 µM	> 20 µM	> 40 µM	–	–	–	–
CCc1ccc(CCOc2ccc(CC3SC(=O)NC3=O)cc2)nc1 (stereo not shown) [Pioglitazone, pioglitazone, reference compound]	–	–	–	–	–	–	0.69 µM	–
CCN(CC)CCNC(=O)c1c(C)[nH]c(/C=C2\C(=O)Nc3ccc(F)cc32)c1C [Sunitinib, reference compound]	–	–	–	1.5 µM	–	–	–	–

From paper PMC6470642, “Phenalenones from a Marine-Derived Fungus Penicillium sp” (Marine Drugs, 2019)
